We go through 2 compounds from US11142533B2, “Macrocycles for use in treating disease” (TURNING POINT THERAPEUTICS, INC., priority 2019, dated 2021).

One data set deals with T1, ALK (V1180L) (Homo sapiens, UniProt Q9UM73, V1180L).
T1 construct: purchased Reaction Biology Corporation (assay run there)
Briefly: Biochemical kinase assay (Reaction Biology). Particulars: 10 μM ATP.

The target of another data set is T2, ALK (E1210K) (Homo sapiens, UniProt Q9UM73, E1210K).
T2 construct: purchased Reaction Biology Corporation (contract assay)
Briefly: Biochemical kinase assay (Reaction Biology). The following applies: 10 μM ATP.

For the next data set, the target named is T3, ALK (F1245C) (Homo sapiens, UniProt Q9UM73, F1245C).
T3 construct: purchased Reaction Biology Corporation (contract assay)
Briefly: Biochemical kinase assay (Reaction Biology). Particulars: 10 μM ATP.

Another data set addresses T4, ALK (C1156Y) (Homo sapiens, UniProt Q9UM73, C1156Y).
T4 construct: purchased Reaction Biology Corporation (contract assay)
Briefly: Biochemical kinase assay (Reaction Biology). The following applies: 10 μM ATP.

The target in a further data set is T5, ALK (G1269S) (Homo sapiens, UniProt Q9UM73, G1269S).
T5 construct: purchased Reaction Biology Corporation (contract assay)
Briefly: Biochemical kinase assay (Reaction Biology). Particulars: 10 μM ATP.

The next data set concerns the target T6, ALK (S1206R) (Homo sapiens, UniProt Q9UM73, S1206R).
T6 construct: purchased Reaction Biology Corporation (contract assay)
Briefly: Biochemical kinase assay (Reaction Biology). Particulars: 10 μM ATP.

The next data set deals with T7, ALK (F1174S) (Homo sapiens, UniProt Q9UM73, F1174S).
T7 construct: purchased Reaction Biology Corporation (contract assay)
Briefly: Biochemical kinase assay (Reaction Biology). The following applies: 10 μM ATP.

Data set [1] has as its target T8, Ba/F3 cell-derived tumors with the EML4-ALK L1198F/G1202R fusion (Homo sapiens, UniProt Q9UM73, G1202R/L1198F).
T8 sequence (Q9UM73 with tags, fused parts or gaps L1198F/G1202R): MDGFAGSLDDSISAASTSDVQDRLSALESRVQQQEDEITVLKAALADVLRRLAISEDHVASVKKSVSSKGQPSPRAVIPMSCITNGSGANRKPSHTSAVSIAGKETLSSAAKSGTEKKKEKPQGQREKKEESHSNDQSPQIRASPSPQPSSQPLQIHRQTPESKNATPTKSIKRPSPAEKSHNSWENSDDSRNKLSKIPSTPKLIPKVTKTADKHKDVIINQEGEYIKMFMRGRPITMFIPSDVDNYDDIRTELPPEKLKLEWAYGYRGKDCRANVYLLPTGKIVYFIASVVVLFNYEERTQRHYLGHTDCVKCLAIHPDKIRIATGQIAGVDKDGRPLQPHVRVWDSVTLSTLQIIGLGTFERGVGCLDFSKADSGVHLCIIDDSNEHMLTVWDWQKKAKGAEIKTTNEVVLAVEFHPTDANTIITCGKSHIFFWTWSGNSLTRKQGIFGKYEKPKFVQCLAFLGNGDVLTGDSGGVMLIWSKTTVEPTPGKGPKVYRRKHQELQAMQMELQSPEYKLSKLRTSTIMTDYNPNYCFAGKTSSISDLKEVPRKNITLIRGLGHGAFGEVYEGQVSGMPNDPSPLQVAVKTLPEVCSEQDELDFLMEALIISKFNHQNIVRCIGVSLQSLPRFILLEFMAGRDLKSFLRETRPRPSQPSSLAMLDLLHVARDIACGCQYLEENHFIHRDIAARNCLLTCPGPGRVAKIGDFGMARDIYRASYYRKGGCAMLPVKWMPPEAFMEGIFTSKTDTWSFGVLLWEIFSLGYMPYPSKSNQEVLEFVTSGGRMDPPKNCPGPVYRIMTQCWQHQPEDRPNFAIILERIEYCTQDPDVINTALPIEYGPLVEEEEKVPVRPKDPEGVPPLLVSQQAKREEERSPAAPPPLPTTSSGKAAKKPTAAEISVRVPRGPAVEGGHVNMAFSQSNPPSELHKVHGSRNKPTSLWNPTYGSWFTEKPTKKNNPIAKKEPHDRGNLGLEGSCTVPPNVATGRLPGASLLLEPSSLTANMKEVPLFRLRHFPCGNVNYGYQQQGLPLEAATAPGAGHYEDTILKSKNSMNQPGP

As a reminder, the IC50 is the concentration at which inhibition is half-maximal. Consider `O=C1NCC2(CC2)COc2ccc(F)cc2CN2c3nc4c1cnn4cc3OC[C@H]2C(F)F` [Compound 2, (16′S)-16′-(Difluoromethyl)-12′-fluoro-4′H,5′H,6′H,8′H,14′H,16′H,17′H-spiro[cyclopropane-1,7′-[1,19](metheno)[1,4]oxazino[3,4-j]pyrazolo[4,3-g][1,5,9,11]benzoxatriazacyclotetradecin]-4′-one], for which the IC50 was determined as 510 pM against ALK (V1180L); 210 pM against ALK (E1210K); 410 pM at ALK (F1245C); 110 pM against ALK (C1156Y); 6140 pM on ALK (G1269S); 310 pM against ALK (S1206R). Also, the IC50 on ALK (F1174S) stood at 760 pM.

Take `CC1(C)COc2ccc(F)cc2CN2c3nc4c(cnn4cc3OC[C@H]2C(F)F)C(=O)N1` [Compound 1, (4S)-4-(Difluoromethyl)-8-fluoro-13,13-dimethyl-3,4,13,14-tetrahydro-6H-18,1-(metheno)[1,4]oxazino[3,4-i]pyrazolo[4,3-f][1,4,8,10]benzoxatriazacyclotridecin-15(12H)-one]: in data set [1] (2, 5, 10 mg/kg BID, after 7 days of treatment), the body weight entry is “no body weight loss”. The “Tumor growth inhibition (TGI)” value in data set [1] (all three dose levels of 2, 5, and 10 mg/kg BID, after 7 days of treatment) turned out to be 200%. Besides, the “tumor response at the end of study” value in data set [1] (all three groups (2, 5, 10 mg/kg BID), day 14 post inoculation) is listed as “complete regression”.
